In patent publication US20160060602A1, “FUSION MIXTURE” (FORSCHUNGSZENTRUM JÜLICH GMBH, priority 2013, published 2016):

System: MDA-MB-231 cancer cells
Assay: Doxorubicin delivery into cancer cells (fluorescence microscopy)
Assay type: cell-based
Settings: MDA-MB-231 cells, 10-minute incubation, same amount of doxorubicin (2 μg)
Experimental: The components of fusion liposomes, DOTAL (molecules of type A) and Doxorubicin (molecules of type B), were mixed at a ratio of 1:0.1 mol/mol from 1 mg/ml parent solutions in chloroform.
Following homogenization of the lipid molecules with the aromatic doxorubicin, the organic solvent was removed under vacuum. The dried mixture was placed in 20 mM HEPES solution having a pH of 7.4 and homogenized in an ultrasonic bath for 20 minutes. The final concentration of the fusion mixture was set to 2 mg/ml. After a dilution of 1/100 v/v in DMEM medium, 500 μl of the fusion mixture was added to approximately 100,000 adherent MDA-MB-231 cancer cells and incubated for 10 minutes at 37° C.
A further cell sample was incubated with the same amount of doxorubicin (2 μg) in culture medium without fusion mixture for control purposes. The conventional dosage is 1 mg/ml.
In addition, doxorubicin was introduced into neutral DOPC liposomes (without molecules of type A) (DOPC:Dox at a ratio of 1:0.1 mol/mol) and added to adherent cells in the same concentration as in the other sample (2 μg/ml). […] The results were then compared to each other.

COc1cccc2c1C(=O)c1c(O)c3c(c(O)c1C2=O)C[C@@](O)(C(=O)CO)C[C@@H]3O[C@H]1C[C@H](N)[C@H](O)[C@H](C)O1 [free doxorubicin, doxorubicin]
doxorubicin uptake (fluorescent signal in cells): low fluorescent signal
